These results are taken from US20240217946A1, “ANTIDEPRESSANT AND ANXIOLYTIC SUBSTITUTED CINNAMAMIDE COMPOUND” (TASLY PHARMACEUTICAL GROUP CO., LTD., priority 2021, published 2024).

One assay deals with C57 BL/6 mice. Nature of the assay: Mice tail suspension test after single oral administration. In kind it is in vivo. The conditions noted are these: 30 min after single administration; for Immobility time within 6 min: n = 10, mean ± SD. From the text: “Behavioral despair” models were developed by Porsolt et al. in 1977, including rats and mice forced swimming models and mice tail suspension models, which were acute stress models. Mice tail suspension experiment was a simple and easy-to-implement experimental method for evaluating antidepressant drugs introduced by Stern et al. in 1985, and its principle was the same as that of forced swimming “immobility” experiment.
40 mice were divided into 4 groups according to the Excel complete random grouping method, with 10 animals in each group. […] Therefore, in this experimental study, with 30 mg/kg as the low dosage of compound M2, 60 mg/kg was set as the high dosage of compound M2 to conduct research in comparison with 60 mg/kg compound I-5.
Each test group was administered intragastrically (i.g.) at 0.2 ml/10 g body weight.
Mice tail suspension test was carried out 30 min after a single oral administration, and the tail suspension lasted for 6 min. The immobility time of mice within 6 min was recorded.
(§1) Data was expressed as mean±standard (mean±SD) difference, and statistics of data differences were made by one-way analysis of variance (ANOVA) or nonparametric test, and differences between groups were determined by P<0.05.

Assay [1] has as its system 5-HT reuptake in rat brain synaptosomes. The experiment in a line: 3H-5-HT reuptake by rat brain synaptosomes. In kind it is biochemical. The conditions noted are these: 3H-5HT 10 nM, read-out: 5-HT inhibition rate % IC50. From the text:
At present, it is believed that absolute or relative deficiencies of the central monoamine neurotransmitters 5-hydroxytryptamine (5-HT), norepinephrine (NA) and dopamine (DA) are closely related to depression and anxiety.
Synaptosomes were separated using methods in literature to prepare brain synaptosomes. SD rats were rapidly decapitated with a small animal decapitator. After decapitation, brains were taken out quickly and precooled in an ice-water mixture, and the pia mater and vascular tissue were removed. Brain tissue was taken out. 10 times volume (ml/g) of 10 mM Tris HCl buffer (containing 0.32 M sucrose, pH 7.4) was added, an ultrasonic cell pulverizer was used for homogenization (maintaining at a low temperature), and the brain tissue was homogenized and centrifuged for 10 min (4° C., 1,000 g). After balanced centrifugation (1500 g, 10 min) at 4° C., precipitate was discarded, then supernatant was taken, and centrifugation (20000 g) was performed again for 30 min. The supernatant was discarded and the precipitate, i.e. crude extract of synaptic corpuscles, was retained. […]
The percentage inhibition of isotope ligand binding by each compound was calculated according to the following equation: […]

The next assay deals with ICR mice. Nature of the assay: Elevated plus maze experiment in mice, single administration. In kind it is in vivo. The conditions noted are these: for OE % / OT %: 30 min after single administration; for anxiolytic activity in elevated plus maze vs solvent control group: comparative study, single intragastric administration of 20 mg/kg. The protocol:
50 male ICR mice were randomly divided into 5 groups (a solvent control group, estazolam group, M2 high dosage group, M2 medium dosage group, M2 low dosage group), with 10 mice in each group. The compound M2 high, medium and low dosage groups were intragastrically administered at 20 mg/kg. 10 mg/kg and 5 mg/kg, respectively; the positive drug estazolam was intragastrically administered at 2.5 mg/kg; and the solvent control group was gavaged with an equal volume of solvent. Behavior test was performed in each group 30 min after single administration. The experiments were required to be conducted between 8:00 am and […], and all animals entered the test laboratory on the previous day.
The laboratory was dimly lit (with the lowest brightness that can distinguish the subtle activities of mice at a distance of 1.5 m) and the brightness was kept constant, with a room temperature of about 20° C., and kept quiet. Before the maze test, each mouse was placed in a 35 cm*10 cm*5 cm plastic box and left to explore freely for 5 min and then quickly placed at the central platform of an elevated plus maze, with its head facing one of the open arms, and the following indexes were recorded upon release. Each mouse was tested for 5 min. Observers observed and recorded animal activities at a distance of 1.5 m. At intervals, the maze was wiped with a wet cloth to remove feces, and then wiped with a dry cloth before a next mouse was tested.
• (1) The number of open arm entries (OE): the number of entries into any open arm, based on the fact that all four claws of the mouse entered the arm, and a complete exit of one claw from the arm indicated the completion of the entry activity; • (2) open arm time (OT): the time of entering an open arm, with the unit of seconds; • (3) the number of close arm entries (CE): the number of entries into any close arm, based on the fact that all four claws of the mouse entered the arm; • (4) close arm time (CT): the time of entering a close arm, with the unit of seconds; • (5) percentage of open arm time: OT %=OT/(OT+CT)*100%; and • (6) percentage of open arm entries: OE %=OE/(OE+CE)*100%.
70 male ICR mice were randomly divided into 7 groups (a solvent control group, estazolam group, compound M2 group, compound II-3 group, compound II-4 group, compound II-5 group, and compound II-10 group), with 10 mice in each group. The dosage of M2 and its four structurally similar compounds was determined as 20 mg/kg according to the experimental results of 3.1: the positive drug estazolam was administered intragastrically at 2.5 mg/kg; and the solvent control group was gavaged with an equal volume of solvent. Behavior test was performed in each group 30 min after single administration. The experiments were required to be conducted between 8:00 am and […], and all animals entered the test laboratory on the previous day.
The behavioral test method and behavioral observation indexes were the same as those in 3.1.
as §1

Where [2] appears, read: comparative study (Table 13), 20 mg/kg i.g.
[3] abbreviates: dosage exploration study (Table 12), 5 mg/kg i.g.
[4] abbreviates: dosage exploration study (Table 12), 10 mg/kg i.g.
Setting [5] is: dosage exploration study (Table 12), 20 mg/kg i.g.

On to `CC(C)CNC(=O)/C=C/c1cc2c(c(C(F)(F)F)c1)OCO2` [Compound I-5], for which the “Immobility time within 6 min” value in the assay on C57 BL/6 mice (60 mg/kg i.g.) amounted to 218.0 ± 35.3 s. Besides, in the assay with C57 BL/6 mice (60 mg/kg), the “effect on immobility time of mice in tail suspension vs blank group” value is listed as “not significantly affected”. In assay [1], the half-maximal inhibitory concentration (IC50) (usually the midpoint of a concentration-inhibition curve) is 18.5 ± 2.47 nM. Also, in the assay with ICR mice (setting [2]), the OE % was determined as 47.01 ± 6.30 % and the OT % was found to be 46.70 ± 9.98 %. The “anxiolytic activity in elevated plus maze vs solvent control group” value in the assay with ICR mice is listed as “significant anxiolytic activity”.
As to `NC(=O)/C=C/c1cc2c(c(C(F)(F)F)c1)OCO2` [Compound M2], the “Immobility time within 6 min” value with C57 BL/6 mice (30 mg/kg i.g.) is 183.9 ± 43.5 s; with C57 BL/6 mice (60 mg/kg i.g.), 171.8 ± 21.7 s. Also, the “effect on immobility time of mice in tail suspension vs blank group” value in the assay on C57 BL/6 mice (30 mg/kg) is reported as “no statistically significant difference”; in the assay on C57 BL/6 mice (60 mg/kg), “significantly shortened”. Also, the IC50 in assay [1] turned out to be 98.9 ± 2.42 nM. The OE % with ICR mice (setting [2]) is 57.94 ± 11.72 %; in the assay with ICR mice (setting [3]), 35.46 ± 10.13%; in the assay with ICR mice (setting [4]), 36.13 ± 14.12%; in the assay on ICR mice (setting [5]) it was 38.47 ± 7.13 %. In addition, the OT % in the assay with ICR mice (setting [2]) worked out at 57.36 ± 8.77 %; in the assay on ICR mice (setting [3]), 38.52 ± 12.19%; in the assay on ICR mice (setting [4]), 35.92 ± 13.11%; with ICR mice (setting [5]) it was 44.60 ± 9.33 %. In the assay on ICR mice, the “anxiolytic activity in elevated plus maze vs solvent control group” value is reported as “significant anxiolytic activity”. Moreover, the “effective dosage for single administration (anxiolytic)” value in the assay with ICR mice (mice, elevated plus maze) is on record as 20 mg/kg.
